Where “and” joins values, the source holds several entries; their conditions need not be identical. Equal entries are not always repeated.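 Exposure lasted 48 hours, with cells grown in 96-well plates and compounds tested at five concentrations. At the GI50, growth is halved. TGI is the concentration that stops growth completely.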
Assays:
Assay in all cases: NCI tumour cell line growth inhibition, 48 h
DMS 273 small cell lung = tested on: DMS 273 small cell lung
M19-MEL melanoma = tested on: M19-MEL melanoma
HOP-18 NSCLC = tested on: HOP-18 NSCLC
DMS 114 small cell lung = tested on: DMS 114 small cell lung
DLD-1 colon = tested on: DLD-1 colon
XF 498 CNS = tested on: XF 498 CNS
LXFL 529 NSCLC = tested on: LXFL 529 NSCLC
RXF-631 renal = tested on: RXF-631 renal
MDA-N = tested on: MDA-N
P388/ADR leukemia = tested on: P388/ADR leukemia
SN12K1 renal = tested on: SN12K1 renal
P388 leukemia = tested on: P388 leukemia

Row | SMILES | TGI (DMS 273 small cell lung) | TGI (M19-MEL melanoma) | TGI (HOP-18 NSCLC) | TGI (DMS 114 small cell lung) | TGI (DLD-1 colon) | TGI (XF 498 CNS) | TGI (LXFL 529 NSCLC) | TGI (RXF-631 renal) | TGI (MDA-N) | further results
1 | CC[C@@]1(O)C(=O)OCc2c1cc1n(c2=O)Cc2cc3c([N+](=O)[O-])c(O)ccc3nc2-1 | 2.02 µM | 11.9 µM | > 100 µM | 1.2 µM | > 100 µM | 9.25 µM | > 100 µM |  |  | GI50 (DMS 273 small cell lung): 0.0605 µM; GI50 (M19-MEL melanoma): 0.655 µM; GI50 (HOP-18 NSCLC): 0.758 µM; GI50 (DMS 114 small cell lung): 0.0601 µM; GI50 (DLD-1 colon): 9.41 µM; GI50 (XF 498 CNS): 1.09 µM; GI50 (LXFL 529 NSCLC): 4.33 µM
2 | CN1CCN2c3ccccc3CC(C#N)(C#N)C2C1 (stereo unspecified) | > 100 µM | > 100 µM | > 100 µM | > 100 µM | > 100 µM |  | > 100 µM | > 100 µM |  | 
3 | CN(C(=N)c1ccccc1)c1ccccc1 | > 100 µM | > 100 µM | > 100 µM |  | > 100 µM |  | > 100 µM |  |  | 
4 | CC(C)(C)c1cc(O)c2c(c1O)C(=O)CCC2 | > 100 µM | 84.9 µM | > 100 µM | 69.1 µM | > 100 µM | 71.2 µM | > 100 µM | > 100 µM |  | 
5 | COC(=O)CCC(=O)Nc1cccc(C(F)(F)F)c1 | > 100 µM | > 100 µM | > 100 µM | > 100 µM | > 100 µM | > 100 µM | > 100 µM |  |  | 
6 | COc1ccc2c(c1)[n+]([O-])c(/C(C)=N/NC(N)=S)c(C)[n+]2[O-] |  | > 100 µM | > 100 µM | > 100 µM | > 100 µM | > 100 µM | > 100 µM | > 100 µM | > 100 µM | 
7 | Cc1ccc2oc(=O)cc(CC(=O)O)c2c1 | > 100 µM | > 100 µM | > 100 µM |  | > 100 µM | 93.1 µM | > 100 µM | > 100 µM |  | 
8 | O=C1C[C@@H]2[C@@H](C=CC23CC3)N1O | > 100 µM | > 100 µM | > 100 µM |  | > 100 µM |  | > 100 µM |  |  | 
9 | Nc1nc(=O)c2[nH]cnc2n1O |  |  |  |  |  |  |  |  | > 100 µM | 
10 | CCOC(=O)NC(=O)c1cn(CC(=O)NCC(=O)NCC(=O)N2CCN(CCn3c(C)nc(C(N)=O)c3N)CC2)c(=O)[nH]c1=O |  | > 100 µM | > 100 µM | > 100 µM | > 100 µM | > 100 µM | > 100 µM | > 100 µM |  | 
11 | NC(N)=NS(=O)(=O)c1ccc(NC(=O)c2cccn3c(=O)c4ccccc4nc23)cc1 | > 100 µM | > 100 µM | > 100 µM | > 100 µM | > 100 µM | 76.8 µM | > 100 µM | > 100 µM |  | 
12 | CCCCN1C(=O)C2c3[nH]c4ccccc4c3C3CCCCC3C2C1=O (mixture of isomers) | 23.5 µM | > 100 µM |  | 44.6 µM | > 100 µM | 27.8 µM | 29.1 µM | 36.4 µM |  | 
13 | C=C(c1ccccc1)[C@@]1(O)CCCC[C@H]1NC(c1ccccc1)c1ccccc1 | 27.1 µM | 28.3 µM | 35.4 µM | 22.3 µM | 31.9 µM |  | 23.9 µM |  |  | 
14 | Nc1ncnc2c1ncn2C1OC(CO)CC1O (stereo unspecified) |  |  |  |  |  |  |  |  | > 100 µM | 
15 | COc1ccc(C(=C(C#N)C#N)c2ccc(OC)cc2)cc1 | > 100 µM |  |  | > 100 µM |  |  | > 100 µM |  |  | 
16 | S=P(C1CCCCC1)(C1CCCCC1)C(c1cccnc1)N1CCCC1 (stereo unspecified) |  |  |  |  |  |  |  |  | 39.3 µM | 
17 | OCC(O)C(O)C(O)c1nn[nH]n1 (stereo unspecified) | > 100 µM | > 100 µM |  | > 100 µM | > 100 µM |  | > 100 µM |  |  | 
18 | CC1=CC[C@@H]2[C@@H](CC[C@@]2(C)O)C(C)(C)[C@H]1CC[C@@H]1[C@@]2(C)CC[C@@H](O)C(C)(C)O[C@@H]2CC[C@]1(C)O |  |  |  |  |  |  |  |  | 53.2 µM | 
19 | Cc1cc(Cl)ccc1NC(=O)C1C(=O)C(=O)N(c2ccc(Cl)cc2C)C1=O (stereo unspecified) | > 100 µM | > 100 µM |  | 68.1 µM | > 100 µM |  | > 100 µM | > 100 µM |  | 
20 | COc1ccc(-c2cc(=O)c3c(OC)c(O)c(OC)cc3o2)cc1 |  |  |  |  |  |  |  |  | > 100 µM | 
21 | O=C1C2c3[nH]c4ccccc4c3C3CCC(c4ccccc4)CC3C2C(=O)N1c1ccccc1 (stereo unspecified) | > 100 µM | > 100 µM | > 100 µM | > 100 µM | > 100 µM | > 100 µM | > 100 µM |  |  | 

Row | SMILES | TGI (DMS 273 small cell lung) | TGI (M19-MEL melanoma) | TGI (HOP-18 NSCLC) | TGI (DMS 114 small cell lung) | TGI (DLD-1 colon) | TGI (XF 498 CNS) | TGI (LXFL 529 NSCLC) | TGI (RXF-631 renal) | TGI (MDA-N) | further results
22 | COC(=O)c1ccc(CS(=O)(=O)c2ccccc2)cc1 | > 100 µM | > 100 µM | > 100 µM | > 100 µM | > 100 µM | > 100 µM | > 100 µM | > 100 µM |  | 
23 | CCCCCCCCCCCCCCCCSS(C)(=O)=O | 42.7 µM |  | > 100 µM |  | 37.7 µM | 16.9 µM | 26.3 µM | 35.6 µM | > 100 µM | 
24 | CCC1CCC2C3CC=C4CC(OC(C)=O)C(N)CC4(C)C3CCC12C (stereo unspecified) |  |  |  |  |  |  |  |  | 6.92 µM | 
25 | COc1cccc(-c2cc(C(=O)Nc3ccc(Cl)cc3)nc(N)n2)c1 | > 100 µM | > 100 µM | > 100 µM | > 100 µM | > 100 µM | > 100 µM | > 100 µM |  |  | 
26 | O=S1(=O)OCc2ccccc21 |  |  |  |  |  |  |  |  | > 100 µM | 
27 | Clc1cc(Cl)cc(C2SCc3nc4ccccc4n32)c1 (stereo unspecified) | 22.4 µM |  | 67.8 µM | 44.7 µM |  |  | 36.3 µM | 32.9 µM |  | 
28 | O=C(CC(O)c1cccnc1)CC(O)c1cccnc1 (stereo unspecified) |  |  |  |  |  |  |  |  | 25.5 µM | 
29 | N#CC1=C(c2ccccc2)NN(Cc2ccccc2)C(c2ccc(Cl)cc2)CC1=O (stereo unspecified) | 52.8 µM |  | 73.5 µM | > 100 µM | 49.1 µM | 50.1 µM | > 100 µM | 85.3 µM |  | 
30 | CN(C)C(=O)C(NCCO)c1ccccc1 (stereo unspecified) |  |  |  |  |  |  |  |  | > 100 µM | 
31 | CCOc1cccc2sc(N)nc12 | > 100 µM | > 100 µM | > 100 µM | > 100 µM | > 100 µM |  | > 100 µM |  |  | 
32 | CN1C(=O)C(C)(C)NS1(=O)=O | > 100 µM | > 100 µM |  | > 100 µM | > 100 µM | > 100 µM | > 100 µM | > 100 µM |  | 
33 | CS(=O)(=O)OCCCCOS(C)(=O)=O | 245 µM | 230 µM | > 200 µM | 250 µM | > 236 µM |  | > 250 µM |  | 250 µM and > 1000 µM | TGI (P388/ADR leukemia): 246 µM; GI50 (MDA-N): > 1000 µM; TGI (SN12K1 renal): 224 µM; TGI (P388 leukemia): 250 µM
34 | CO[C@H](C(=O)O[C@H]1C(=O)N2CCC3CCC1C32C)c1ccccc1 (stereo partly specified) |  | > 100 µM | > 100 µM | > 100 µM | > 100 µM | > 100 µM | > 100 µM |  |  | 
35 | CC(C)COC(=O)N1N=NC2C3CC(=O)C(O3)C21 (stereo unspecified) | > 100 µM | > 100 µM | > 100 µM | > 100 µM | > 100 µM |  | > 100 µM | > 100 µM |  | 
36 | O=c1/c(=C/c2ccccc2O)sc2nc3ccccc3n12 | > 100 µM | > 100 µM |  | 47.5 µM | > 100 µM |  | > 100 µM | > 100 µM |  | 
37 | C/C(=N\NC(=O)C[n+]1ccccc1)c1sc(-c2nc(C)c(/C(C)=N/NC(=O)C[n+]3ccccc3)s2)nc1C |  | > 100 µM |  | > 100 µM | > 100 µM |  | > 100 µM |  |  | 
38 | CC(=O)O[C@H]1CC[C@@]2(C)C(=CC[C@@H]3C2CC[C@]2(C)C(=O)NC(=O)CC32)C1 (stereo partly specified) | > 100 µM | > 100 µM | > 100 µM | > 100 µM | > 100 µM | > 100 µM | > 100 µM | > 100 µM |  | 
39 | COC1=CC(=O)c2c(O)c3c(c(O)c2C1=O)OC1(Oc2c(cc4cc(C)oc(=O)c4c2O)CC1O)C3O (stereo unspecified) |  |  |  |  |  |  |  |  | 42.9 µM | 
40 | COc1cccc(-c2cc(=O)c3cc(C)c(C)c(C(=O)O)c3o2)c1 | > 100 µM | > 100 µM |  | > 100 µM | > 100 µM | > 100 µM | > 100 µM | > 100 µM |  | 
41 | CC1OC(OC23C(=O)CC(C)(O)CC2(O)C=CC2=C3C(=O)c3ccc(C4CC(OC5CCC(OC6CC(O)C(O)C(C)O6)C(C)O5)C(O)C(C)O4)c(O)c3C2=O)CCC1O (stereo unspecified) | 36.3 µM and 10 µM |  | 31.3 µM and 30.8 µM | 31 µM and 21.2 µM | 26.8 µM and 23.8 µM | 32.9 µM and 32.1 µM | 28.8 µM and 23.9 µM | 35.6 µM and 26.5 µM |  | GI50 (DMS 273 small cell lung): 20.5 µM and 3.18 µM; GI50 (DMS 114 small cell lung): 16.5 µM and 8.11 µM
42 | C=CCNC(=O)ON1C(=O)CCC1=O | > 100 µM | > 100 µM | > 100 µM | > 100 µM | > 100 µM |  | > 100 µM |  |  | 

Source: PubChem BioAssay (NCI)
